Results published in patent US10052289B2, “Composition comprising an active agent with low aqueous solubility” (Flamel Ireland Limited, priority 2008, dated 2018).
≈ marks a conversion by molar mass, not a printed value. Where “and” joins values, the source holds several entries; their conditions need not be identical. Identical values can stand only once. Like-named read-outs stand apart in the source and are kept apart here. Each block holds one molecule with its values, some of them ahead of it.

Experiments:
[1] = background statement; cited from earlier work
physchem [2] = details: for solubility at […]: 37 °C, pH 7, aqueous buffer, thermodynamic from solid
Method: 0.49 mg of paclitaxel (Bioxel) is introduced into a 2 liter volumetric flask. The flask is topped up to the fill line with a 0.05 M phosphate buffer at pH 7.0. The preparation is stirred using a magnetic bar, at 37° C.
The preparation is then placed in an ultrasonic bath for 60 min at ambient temperature.

[3] = Solubilization of paclitaxel in aqueous POM polymer solution at 20 mg/ml (visual check); format: physicochemical; details: for Solubilized active ingredient in μmol per g of polymer / Total concentration of active ingredient solibilized for 20 g/l of polymer: 20 g/l, pH 7.0, ambient temperature
Method: 4.99 mg of paclitaxel (Bioxel) are introduced into a pill-box.
10.33 mg of paclitaxel (Bioxel) are introduced into a pill-box.
7 mg of paclitaxel (Bioxel) are introduced into a pill-box.

[4] = Solubilization of paclitaxel in concentrated aqueous POM polymer solution (visual check); format: physicochemical; details: for solubility: concentrated aqueous POM polymer solution
Method: 21.21 mg of paclitaxel (Bioxel) are introduced into a pill-box.
39.68 mg of paclitaxel (Bioxel) are introduced into a pill-box.
35.05 mg of paclitaxel (Bioxel) are introduced into a pill-box.

physchem [5] = details: concentrated aqueous POM polymer solution, pH 7, aqueous with cosolvent or surfactant or cyclodextrin, thermodynamic from solid, Total concentration of solubilized active ingredient, ambient temperature
[6] = pH 7.0, ambient temperature
physchem [7] = details: pH 7, aqueous buffer, thermodynamic from solid, solubility in the absence of polymer
Method: 40 to 50 mg of carvedilol base are introduced into a 15 ml Falcon tube. 5 ml of aqueous solution of concentrated POM polymer at 20 mg/ml and at pH 7.0 are added. […] After this stage, the preparation is centrifuged at 9,000 rpm for 30 minutes in order to eliminate any undissolved crystals. […] It is diluted 1,000 times with a phosphate buffer at pH 7.0. The concentration of solubilized carvedilol is determined by UV spectrometry (at a wavelength of 240 nm and using a cell with a 1 cm optical path).

[8] = remark: listed apart in the source
Method: The preparation is centrifuged at 9,000 rpm for 30 minutes.

[9] = Solubilization of ketoconazole in concentrated POM polymer solution (visual check); format: physicochemical; details: for solubility: pH 7, aqueous with cosolvent or surfactant or cyclodextrin, thermodynamic from solid
physchem [10] = details: thermodynamic from solid
[11] = sodium polyglutamate DP=100, 5% VE
[12] = sodium polyglutamate DP=100, 10% VE
[13] = sodium polyglutamate DP=100, 15% VE
[14] = sodium polyglutamate DP=100, 20% VE
[15] = sodium polyglutamate DP=100, 10% VE, 52.8 mg/ml, pH 7.0, ambient temperature
[16] = sodium polyglutamate DP=100, 15% VE, 84.6 mg/ml, pH 7.0, ambient temperature
[17] = sodium polyglutamate DP=100, 20% VE, 156 mg/ml, pH 7.0, ambient temperature
[18] = sodium polyglutamate DP=100, 30% VE, 53.5 mg/ml, pH 7.0, ambient temperature
[19] = sodium polyglutamate DP=100, 10% VE, 52.8 mg/ml
[20] = sodium polyglutamate DP=100, 15% VE, 84.6 mg/ml
[21] = sodium polyglutamate DP=100, 20% VE, 156 mg/ml

solubility at […] (physchem [2]; solubility in an aqueous buffer): < 0.25 µg/mL and < 0.3 µM | solubility at […] (physchem [2]; solubility of the active ingredient measured without polymer): 0.0003 mM (≈ 0.256 µg/mL) | μmol of paclitaxel per gram of POM polymer ([3]; 20 mg/ml polyglutamate DP=100, 20% VE): 47 μmol per gram of POM polymer | solubility at […] ([3]; aqueous polyglutamate (POM) polymer solution, pH 7, aqueous with cosolvent or surfactant or cyclodextrin, thermodynamic from solid, 20 mg/ml polyglutamate DP=100, 20% VE): ~800 µg/mL (≈ 937 µM) | Solubilized active ingredient in μmol per g of polymer [3, 11]: 12 μmol per g of polymer | Total concentration of active ingredient solibilized for 20 g/l of polymer [3, 11]: 0.00023 mol/L | Solubilized active ingredient in μmol per g of polymer [3, 12]: 29 μmol per g of polymer | Total concentration of active ingredient solibilized for 20 g/l of polymer [3, 12]: 0.00059 mol/L | Solubilized active ingredient in μmol per g of polymer [3, 13]: 47 μmol per g of polymer | Total concentration of active ingredient solibilized for 20 g/l of polymer [3, 13]: 0.00094 mol/L | Solubilized active ingredient in μmol per g of polymer [3, 14]: 47 μmol per g of polymer | Total concentration of active ingredient solibilized for 20 g/l of polymer [3, 14]: 0.00094 mol/L | μmol of paclitaxel per gram of POM polymer ([4]; 90 mg/ml polyglutamate 20% VE): 49 μmol per gram of POM polymer | solubility at 5 h ([4]; aqueous polyglutamate (POM) polymer solution, pH 7, aqueous with cosolvent or surfactant or cyclodextrin, thermodynamic from solid, 90 mg/ml polyglutamate 20% VE): 3500 to 4000 µg/mL (≈ 4100 to 4680 µM) | solubility ([4]; pH 7, aqueous with cosolvent or surfactant or cyclodextrin, thermodynamic from solid, concentrated polymers DP=100 containing between 15% and 20% vitamin E, read-out: concentrations of solubilized active ingredient): > 3 mM | solubility ([4]; pH 7, aqueous with cosolvent or surfactant or cyclodextrin, thermodynamic from solid, sodium polyglutamate DP=100, 10% VE, 52.8 mg/ml, pH 7.0, ambient temperature, read-out: Total concentration of solubilized active ingredient): 1.5 mM (≈ 1280 µg/mL) | solubility ([4]; pH 7, aqueous with cosolvent or surfactant or cyclodextrin, thermodynamic from solid, sodium polyglutamate DP=100, 15% VE, 84.6 mg/ml, pH 7.0, ambient temperature, read-out: Total concentration of solubilized active ingredient): 3.5 mM (≈ 2990 µg/mL) | solubility ([4]; pH 7, aqueous with cosolvent or surfactant or cyclodextrin, thermodynamic from solid, sodium polyglutamate DP=100, 20% VE, 156 mg/ml, pH 7.0, ambient temperature, read-out: Total concentration of solubilized active ingredient): 6.4 mM (≈ 5470 µg/mL) | solubility ([4]; pH 7, aqueous with cosolvent or surfactant or cyclodextrin, thermodynamic from solid, sodium polyglutamate DP=100, 30% VE, 53.5 mg/ml, pH 7.0, ambient temperature, read-out: Total concentration of solubilized active ingredient): < 1.4 mM | Solubilized active ingredient in μmol per g of polymer [4, 15]: 29 μmol per g of polymer | Solubilized active ingredient in μmol per g of polymer [4, 16]: 42 μmol per g of polymer | Solubilized active ingredient in μmol per g of polymer [4, 17]: 41 μmol per g of polymer | Solubilized active ingredient in μmol per g of polymer [4, 18]: <26 μmol per g of polymer
SMILES: CC(=O)O[C@H]1C(=O)[C@@]2(C)[C@H]([C@H](OC(=O)c3ccccc3)[C@]3(O)C[C@H](OC(=O)[C@H](O)[C@@H](NC(=O)c4ccccc4)c4ccccc4)C(C)=C1C3(C)C)[C@]1(OC(C)=O)CO[C@@H]1C[C@@H]2O [paclitaxel]
aqueous solubility [1]: less than 1 μg/ml | appearance after ultrasonic treatment (physchem [2]; 0.49 mg paclitaxel in 2 liter 0.05 M phosphate buffer pH 7.0, after stirring, ultrasonic bath 60 min at ambient temperature): A few grains of powder are still undissolved | appearance after magnetic stirring (physchem [2]; 0.49 mg paclitaxel in 2 liter 0.05 M phosphate buffer pH 7.0, magnetic stirring […] at 37° C.): a few grains of undissolved powder remain

solubility (physchem [5]; [19]): 33.7 mM (≈ 13700 µg/mL) | solubility (physchem [5]; [20]): 40.1 mM (≈ 16300 µg/mL) | solubility (physchem [5]; [21]): 84.6 mM (≈ 34400 µg/mL) | Solubilized active ingredient in μmol per g of polymer [6, 19]: 638 μmol per g of polymer | Solubilized active ingredient in μmol per g of polymer [6, 20]: 474 μmol per g of polymer | Solubilized active ingredient in μmol per g of polymer [6, 21]: 543 μmol per g of polymer | Solubilized active ingredient in μmol per g of polymer (pH 7): 28 μmol per g of polymer | Total concentration of solubilized active ingredient for 20 g/l of polymer (pH 7): 0.000565 mol/L | solubility at 90 min (physchem [7]): 0.12 mM (≈ 48.8 µg/mL)
SMILES: COc1ccccc1OCCNCC(O)COc1cccc2[nH]c3ccccc3c12 (centres unmarked) [carvedilol base, carvedilol]

SMILES: CC(=O)N1CCN(c2ccc(OCC3COC(Cn4ccnc4)(c4ccc(Cl)cc4Cl)O3)cc2)CC1 (centres unmarked) [ketoconazole]
factor of increase of solubility [8]: approximately 200 | solubility ([9]; concentrated aqueous POM polymer solution, concentrated polymers DP=100 containing between 15% and 20% vitamin E, read-out: concentrations of solubilized active ingredient): > 30 mM | solubility ([9]; concentrated aqueous POM polymer solution, sodium polyglutamate DP=100, 15% VE, 84.6 mg/ml, pH 7.0, ambient temperature, read-out: Total concentration of solubilized active ingredient): 31.1 mM (≈ 16500 µg/mL) | solubility ([9]; sodium polyglutamate DP=100, 10% VE, 52.8 mg/ml, pH 7.0, ambient temperature, read-out: Total concentration of solubilized active ingredient): 16 mM (≈ 8500 µg/mL) | solubility ([9]; sodium polyglutamate DP=100, 20% VE, 156 mg/ml, pH 7.0, ambient temperature, read-out: Total concentration of solubilized active ingredient): 53.5 mM (≈ 28400 µg/mL) | solubility ([9]; sodium polyglutamate DP=100, 30% VE, 53.5 mg/ml, pH 7.0, ambient temperature, read-out: Total concentration of solubilized active ingredient): 14.1 mM (≈ 7490 µg/mL) | Solubilized active ingredient in μmol per g of polymer [9, 15]: 303 μmol per g of polymer | Solubilized active ingredient in μmol per g of polymer [9, 16]: 367 μmol per g of polymer | Solubilized active ingredient in μmol per g of polymer [9, 17]: 343 μmol per g of polymer | Solubilized active ingredient in μmol per g of polymer [9, 18]: 264 μmol per g of polymer | Solubilized active ingredient in μmol per g of polymer (sodium polyglutamate DP=100, 2% VE, 20 g/l, pH 7.0, ambient temperature): 28 μmol per g of polymer | Solubilized active ingredient in μmol per g of polymer (sodium polyglutamate DP=100, 5% VE, 20 g/l, pH 7.0, ambient temperature): 127 μmol per g of polymer | Solubilized active ingredient in μmol per g of polymer (sodium polyglutamate DP=100, 10% VE, 20 g/l, pH 7.0, ambient temperature): 358 μmol per g of polymer | Solubilized active ingredient in μmol per g of polymer (sodium polyglutamate DP=100, 15% VE, 20 g/l, pH 7.0, ambient temperature): 358 μmol per g of polymer | Solubilized active ingredient in μmol per g of polymer (sodium polyglutamate DP=100, 20% VE, 20 g/l, pH 7.0, ambient temperature): 348 μmol per g of polymer | solubility (physchem [10]; aqueous POM polymer solution, pH 7, aqueous with cosolvent or surfactant or cyclodextrin, Total concentration of solubilized active ingredient for 20 g/l of polymer, sodium polyglutamate DP=100, 2% VE, 20 g/l, pH 7.0, ambient temperature): 0.565 mM (≈ 300 µg/mL) | solubility (physchem [10]; aqueous POM polymer solution, pH 7, aqueous with cosolvent or surfactant or cyclodextrin, Total concentration of solubilized active ingredient for 20 g/l of polymer, sodium polyglutamate DP=100, 5% VE, 20 g/l, pH 7.0, ambient temperature): 2.54 mM (≈ 1350 µg/mL) | solubility (physchem [10]; aqueous POM polymer solution, pH 7, aqueous with cosolvent or surfactant or cyclodextrin, Total concentration of solubilized active ingredient for 20 g/l of polymer, sodium polyglutamate DP=100, 10% VE, 20 g/l, pH 7.0, ambient temperature): 7.16 mM (≈ 3810 µg/mL) | solubility (physchem [10]; aqueous POM polymer solution, pH 7, aqueous with cosolvent or surfactant or cyclodextrin, Total concentration of solubilized active ingredient for 20 g/l of polymer, sodium polyglutamate DP=100, 15% VE, 20 g/l, pH 7.0, ambient temperature): 7.16 mM (≈ 3810 µg/mL) | solubility (physchem [10]; aqueous POM polymer solution, pH 7, aqueous with cosolvent or surfactant or cyclodextrin, Total concentration of solubilized active ingredient for 20 g/l of polymer, sodium polyglutamate DP=100, 20% VE, 20 g/l, pH 7.0, ambient temperature): 6.97 mM (≈ 3700 µg/mL) | solubility (physchem [10]; aqueous medium without polymer, pH 7, aqueous buffer, solubility in the absence of polymer, pH 7.0, absence of polymer): ~0.02 mM (≈ 10.6 µg/mL)
